Tests used:
[1] = Determination of the single i.v. dose MTD in female BALB/c nude mice; format: in vivo
Experimental: (§1) The Maximal Tolerated Dose (MTD) is determined according to standard procedures; preferably, in warm-blooded animals the MTD in case of oral or intravenous administration is determined as the Dose of a single administration where no death occurs and a loss of body weight of less than 40, preferably less than 25, percent (%) is found in the treated warm-blooded animal individual (this term here mainly referring to an animal; for humans see below).
(§2) For the MTD determination, female BALB/c nude mice or BALB/c mice (obtained from Novartis Animal Farm, Sisseln, Switzerland) are treated once intravenously with epothilone B (n=3 per dose group). The dosage is increased (2, 4, 6, 8, 10 and 12 mg/kg) and the mice are observed for the presentation of overt toxic effects for 10 days after drug treatment.

[2] = test system: human PC-3M prostate carcinoma cells; assay: Antitumor effect against orthotopically injected PC-3M cells; format: in vivo, male BALB/c nude mice; details: for Tumor Response (T/C %) Lymph Nodes / Tumor Response (T/C %) Prostate: day 42
Experimental: A human androgen-independent prostate cancer cell line is used to establish subcutaneous and orthotopic models in mice. The human metastatic prostate carcinoma PC-3M is obtained from Dr. I. J. Fidler (MD Anderson Cancer Center, Houston, Tex., USA) and is cultured in Ham's F12K media supplemented with 7% v/v FBS. The PC-3M cell line is the result of isolation from liver metastasis produced in nude mice subsequent to intrasplenic injection of PC-3 cells [ATCC CRL 1435; American Type Culture Collection (Rockville, Md., USA)], and they can grow in Eagle's MEM supplemented with 10% fetal bovine serum, sodium pyruvate, non-essential amino acids, L-glutamine, a two-fold vitamin solution (Gibco Laboratories, Long Island, N.Y.) and penicillin-streptomycin (Flow Laboratories, Rockville, Md.). The PC-3M cell line is hormone-insensitive (that is, it grows in the absence of androgens). The PC-3 cell line is androgen receptor negative, as is presumably the derived PC-3M cell line. […] The cells are near-triploid with a modal number of 62 chromosomes. No normal Y chromosomes can be detected by Q-band analysis.
Human prostate carcinoma PC-3M cells (1×10^6 cells per 20 μl phosphate buffered saline) are injected into the left […] of the prostate of each animal (n=6-9/group) according the method previously described (see Stephenson et al., J. Natl. Cancer Inst. 84, 951-7 (1992)). Treatment is started on day 14 after cell injection. At this time point a mean tumor weight of ˜20 mg is established. Epothilone B is administered either once or once weekly. Mice are sacrificed 42 days post tumor inoculation, and the prostates are carefully removed, dissected free of adhering tissue and weighed. […] Mesenteric lymph nodes are examined for the presence of metastases, dissected free of adhering tissue and weighed.
Tumor weight and body weights are monitored once or twice weekly. All treatments are administered intravenously (i.v.) and are initiated 14 days post cell injection. Treatment with epothilone B varies the dose and frequency of administration. Antitumor activity is expressed as T/C % (mean tumor weight of treated animals divided by the mean tumor weight of control animals multiplied by 100).

ZR-75-1 (Breast) = assay: Antiproliferative assay, ZR-75-1; format: cell-based, human; details: ZR-75-1, 5 d exposure, mean ± SD, n = 3; read-out: IC50 for growth inhibition
Experimental: Antiproliferative assays are performed as previously described (Int. J. Cancer 43, 851-6 (1989)). Briefly, cells are seeded at 1.5×10^3 cells/well into 96-well microtiter plates and incubated overnight. Compounds are added in serial dilutions on day 1. The plates are then incubated for an additional 2 to 5 days, allowing for at least one cell doubling (cell line dependent), after which the cells are fixed with 3.3% v/v glutaraldehyde, washed with water and stained with 0.05% w/v methylene blue. After washing, the dye is eluted with 3% v/v HCl and the optical density measured at 665 nm with a SpectraMax 340 (Bucherer, Basel, Switzerland). IC50 values are determined by a computerized system (SoftPro, Bucherer, Basel, Switzerland) using the formula (OD test−OD start)/(OD control−OD start)×100. IC50 is defined as the drug concentration which leads to 50% of cells per well compared to control cultures (100%) at the end of incubation period.

[3] = Determination of the single i.v. dose MTD in normal female BALB/c mice; format: in vivo
Experimental: as §1, §2

[4] = 2 mg/kg single i.v. bolus, Experiment 2
[5] = 4 mg/kg single i.v. bolus, Experiment 2
[6] = 6 mg/kg single i.v. bolus, Experiment 1
[7] = 6 mg/kg single i.v. bolus, Experiment 2
[8] = 8 mg/kg single i.v. bolus, Experiment 1
[9] = 8 mg/kg single i.v. bolus, Experiment 2
[10] = 10 mg/kg single i.v. bolus, Experiment 1
[11] = 12 mg/kg single i.v. bolus, Experiment 1

C/C(=C\c1csc(C)n1)[C@@H]1C[C@@H]2O[C@]2(C)CCC[C@H](C)[C@H](O)[C@@H](C)C(=O)C(C)(C)[C@@H](O)CC(=O)O1 [epothilone B]
Body Weight % Change ([1]; 2 mg/kg single i.v. bolus): 4.2 ± 2.1%
Body Weight Δ (mean g ± SD) ([1]; 2 mg/kg single i.v. bolus): 1.0 ± 0.5 g
Mortalities ([1]; 2 mg/kg single i.v. bolus): 0/3
Body Weight % Change ([1]; 4 mg/kg single i.v. bolus): −1.7 ± 2.9%
Body Weight Δ (mean g ± SD) ([1]; 4 mg/kg single i.v. bolus): -0.4 ± 0.6 g
Mortalities ([1]; 4 mg/kg single i.v. bolus): 0/3
Body Weight % Change ([1]; 6 mg/kg single i.v. bolus): −4.2 ± 2.1%
Body Weight Δ (mean g ± SD) ([1]; 6 mg/kg single i.v. bolus): -1.0 ± 0.5 g
Mortalities ([1]; 6 mg/kg single i.v. bolus): 0/3
Body Weight % Change ([1]; 8 mg/kg single i.v. bolus): −16.8 ± 12.2%
Body Weight Δ (mean g ± SD) ([1]; 8 mg/kg single i.v. bolus): -3.8 ± 2.7 g
Mortalities ([1]; 8 mg/kg single i.v. bolus): 1/3
Body Weight % Change ([1]; 10 mg/kg single i.v. bolus): −23.7 ± 13.6%
Body Weight Δ (mean g ± SD) ([1]; 10 mg/kg single i.v. bolus): -5.6 ± 3.3 g
Mortalities ([1]; 10 mg/kg single i.v. bolus): 1/3
Body Weight % Change ([1]; 12 mg/kg single i.v. bolus): −22.9 ± 3.1%
Body Weight Δ (mean g ± SD) ([1]; 12 mg/kg single i.v. bolus): -5.1 ± 0.6 g
Mortalities ([1]; 12 mg/kg single i.v. bolus): 3/3
MTD ([1]; single dose i.v., nude mice): 6 mg/kg
% Body Weight Change ([2]; 4 mg/kg, i.v. once per week): −1 ± 5%
Survival (No. alive/total) ([2]; 4 mg/kg, i.v. once per week): 8/9
Δ Body Weight ([2]; 4 mg/kg, i.v. once per week): -1.2 ± 2.3 g
Tumor Response (T/C %) Lymph Nodes ([2]; 4 mg/kg, i.v. once per week): 4%
Tumor Response (T/C %) Prostate ([2]; 4 mg/kg, i.v. once per week): 2%
% Body Weight Change ([2]; 5 mg/kg, i.v. once per week): −25 ± 5%
Survival (No. alive/total) ([2]; 5 mg/kg, i.v. once per week): 7/9
Δ Body Weight ([2]; 5 mg/kg, i.v. once per week): -6.8 ± 1.5 g
Tumor Response (T/C %) Lymph Nodes ([2]; 5 mg/kg, i.v. once per week): 4%
Tumor Response (T/C %) Prostate ([2]; 5 mg/kg, i.v. once per week): 1%
% Body Weight Change ([2]; 6 mg/kg, i.v. once): −6 ± 12%
Survival (No. alive/total) ([2]; 6 mg/kg, i.v. once): 9/9
Δ Body Weight ([2]; 6 mg/kg, i.v. once): -1.4 ± 4.1 g
Tumor Response (T/C %) Lymph Nodes ([2]; 6 mg/kg, i.v. once): 4%
Tumor Response (T/C %) Prostate ([2]; 6 mg/kg, i.v. once): 5%
% Body Weight Change ([2]; 8 mg/kg, i.v. once): −13 ± 15%
Survival (No. alive/total) ([2]; 8 mg/kg, i.v. once): 7/9
Δ Body Weight ([2]; 8 mg/kg, i.v. once): -5.2 ± 4.3 g
Tumor Response (T/C %) Lymph Nodes ([2]; 8 mg/kg, i.v. once): 4%
Tumor Response (T/C %) Prostate ([2]; 8 mg/kg, i.v. once): 1%
animals with detectable metastases ([2]; in each of the epothilone B treatment groups, all animals in vehicle controls): one
IC50 (ZR-75-1 (Breast)): 0.64 ± 0.42 nM
Body Weight % Change [3, 4]: 12.3 ± 3.0%
Body Weight Δ (mean g ± SD) [3, 4]: 2.3 ± 0.6 g
Mortalities [3, 4]: 0/3
Body Weight % Change [3, 5]: 6.5 ± 2.6%
Body Weight Δ (mean g ± SD) [3, 5]: 1.3 ± 0.6 g
Mortalities [3, 5]: 0/3
Body Weight % Change [3, 6]: −28.6 ± 3.5%
Body Weight Δ (mean g ± SD) [3, 6]: -6.1 ± 0.9 g
Mortalities [3, 6]: 1/3
Body Weight % Change [3, 7]: −27.5 ± 2.1%
Body Weight Δ (mean g ± SD) [3, 7]: -5.3 ± 0.6 g
Mortalities [3, 7]: 2/3
Body Weight % Change [3, 8]: −22.1 ± 13.1%
Body Weight Δ (mean g ± SD) [3, 8]: -5.1 ± 3.2 g
Mortalities [3, 8]: 3/3
Body Weight % Change [3, 9]: −25.3 ± 3.9%
Body Weight Δ (mean g ± SD) [3, 9]: -5.0 ± 1.0 g
Mortalities [3, 9]: 3/3
Body Weight % Change [3, 10]: −24.9 ± 1.6%
Body Weight Δ (mean g ± SD) [3, 10]: -5.6 ± 0.6 g
Mortalities [3, 10]: 3/3
Body Weight % Change [3, 11]: −23.6 ± 11.9%
Body Weight Δ (mean g ± SD) [3, 11]: -5.4 ± 2.9 g
Mortalities [3, 11]: 3/3
MTD ([3]; single dose i.v., normal mice): 4 mg/kg
